Source: patent publication US20070281857A1, “FORMIC ACID AS AN HERBICIDE” (MARRONE ORGANIC INNOVATIONS, priority 2006, published 2007)
Where two headings read alike, the source gives them in different places.

Assays:
[1] = system: Poa annua (annual bluegrass); conditions: for germination rate (%) annual bluegrass: one week, compared with control
Experimental: (§1) Pots with 3-cm diameter were filled with 60 mL of silt clay loam soil passed through a 2-mm sieve, and five (5) seeds of either Taraxacum officinale (dandelion, representing a broadleaved weed) or Poa annua (annual bluegrass, representing a grass weed) were planted on the top. A solid form of the composition containing corn gluten meal granules (>2 mm diameter) soaked in 0%, 10%, 15% or 20% formic acid solution and dried were placed on the top of the soil at rates 0.1, 0.25, 0.5 and 1.0 g/pot. The pots were kept at optimum water content under growth lights with a 12-h light/dark period at room temperature, and the number of germinated seeds was counted after one week.

[2] = system: Taraxacum officinale (dandelion); conditions: for germination rate (%) dandelion: one week, compared with control
Experimental: as §1

[3] = system: Seedlings of Lactuca sativa (lettuce)
Experimental: A high-throughput 96-well assay was used to test the efficacy of formic acid as a post-emergence, non-selective herbicide. Seedlings of Lactuca sativa (lettuce) were grown in 96-well plates under continuous light. Formic acid was added on the seedlings at a 5x-dilution series from 20% to 0%, and the minimum concentration needed for killing the seedling was recorded the next day.

[4] = system: wheat (Triticum aestivum); conditions: 5%, spray
Experimental: (§2) The herbicidal effect of formic acid was compared with that of acetic acid in a greenhouse study using radish (Raphanus sativus) and wheat (Triticum aestivum) as test plants. Both formic acid and acetic acid were diluted in water at 1, 3, and 5%, and deionized water was used as a control. Tween 20 was added to each of the solutions at a rate 0.04% for use as a surfactant. Solutions were applied to plants using a small handheld sprayer. Plants were evaluated at 24- and 72-hours after treatment for the % control.

[5] = system: radish (Raphanus sativus); conditions: spray, 1, 3 and 5% in water with 0.04% Tween 20
Experimental: as §2

[6] = 10% formic acid in corn gluten meal granules >2 mm, 0.1 g/pot
[7] = 10% formic acid in corn gluten meal granules >2 mm, 0.25 g/pot
[8] = 10% formic acid in corn gluten meal granules >2 mm, 0.5 g/pot
[9] = 10% formic acid in corn gluten meal granules >2 mm, 1 g/pot
[10] = 15% formic acid in corn gluten meal granules >2 mm, 0.1 g/pot
[11] = 15% formic acid in corn gluten meal granules >2 mm, 0.25 g/pot
[12] = 15% formic acid in corn gluten meal granules >2 mm, 0.5 g/pot
[13] = 15% formic acid in corn gluten meal granules >2 mm, 1 g/pot
[14] = 20% formic acid in corn gluten meal granules >2 mm, 0.1 g/pot
[15] = 20% formic acid in corn gluten meal granules >2 mm, 0.25 g/pot
[16] = 20% formic acid in corn gluten meal granules >2 mm, 0.5 g/pot
[17] = 20% formic acid in corn gluten meal granules >2 mm, 1 g/pot
[18] = bigger granules (>2 mm) imbedded in 15% formic acid

## O=CO [Formic acid]
[1]; [6]
  germination rate (%) annual bluegrass: 100%
[1]; [7]
  germination rate (%) annual bluegrass: 100%
[1]; [8]
  germination rate (%) annual bluegrass: 30%
[1]; [9]
  germination rate (%) annual bluegrass: 100%
[1]; [10]
  germination rate (%) annual bluegrass: 0%
[1]; [11]
  germination rate (%) annual bluegrass: 0%
[1]; [12]
  germination rate (%) annual bluegrass: 0%
[1]; [13]
  germination rate (%) annual bluegrass: 100%
[1]; [14]
  germination rate (%) annual bluegrass: 100%
[1]; [15]
  germination rate (%) annual bluegrass: 100%
[1]; [16]
  germination rate (%) annual bluegrass: 100%
[1]; [17]
  germination rate (%) annual bluegrass: 100%
[1]; [18]
  control of the grass seed germination: not effective
[2]; [6]
  germination rate (%) dandelion: 60%
[2]; [7]
  germination rate (%) dandelion: 30%
[2]; [8]
  germination rate (%) dandelion: 30%
[2]; [9]
  germination rate (%) dandelion: 0%
[2]; [10]
  germination rate (%) dandelion: 30%
[2]; [11]
  germination rate (%) dandelion: 30%
[2]; [12]
  germination rate (%) dandelion: 30%
[2]; [13]
  germination rate (%) dandelion: 0%
[2]; [14]
  germination rate (%) dandelion: 0%
[2]; [15]
  germination rate (%) dandelion: 0%
[2]; [16]
  germination rate (%) dandelion: 0%
[2]; [17]
  germination rate (%) dandelion: 0%
[2]; [18]
  control of a broadleaved weed: complete control
[3]; 5x-dilution series from 20% to 0%, recorded the next day
  minimum concentration needed for killing the seedling: 0.8%
[3]; formic acid 0.16%, next day
  effect on lettuce seedling: not harmful for the plant
[4]; 24-h
  % control of wheat seedlings: 1%
[4]; 72-h
  % control of wheat seedlings: 4%
[5]; 24-h
  % control of radish plants: 100%
[5]; 72-h
  % control of radish plants: 100%
